Test results: US8906896B2, “Platinum acridine anti-cancer compounds and methods thereof” (priority 2008, dated 2014)

Experiments:
[1] = H460 xenograft study in nude mice; assay type: in vivo; settings: female, athymic nude, mouse, in vivo, ip, q4d×3, mice; dose B stated to be close to the MTD; read-out: maximum tolerated dose (MTD)
Experimental: (§1) Xenograft Study. H460 xenografts were established in nude athymic female mice via bilateral subcutaneous injections. Treatment began when the average tumor volume was approximately 100 mm^3. The tumor-bearing mice were randomized depending on tumor volume into three groups of five test animals each: one control group receiving vehicle only, one group treated at 0.1 mg/kg 5d/w×2 (A), and one group treated at 0.5 mg/kg q4d×3 (B). Animal weights and tumor volumes were measured and recorded for 17 days after the first dose was administered. Tumor volumes were determined using the formula:V (mm^3)=d^2×D/2, where d and D are the shortest and longest dimension of the tumor, respectively, and are reported as the sum of both tumors for each test animal. At the end of the study, all animals were euthanized and disposed of according to Standard Operating Procedures (SOPs). Statistical analysis of the growth curves was done using a non-linear polynomial random-coefficient model in SAS Proc Mixed (SAS Institute Inc., Cary, N.C.).
(§2) The antitumor activity of compound 14b was evaluated against H460 bilateral tumors implanted into athymic nude mice. […] Complex 14b was administered intraperitonealy (i.p.) according to the following dosing schedules: (A) 0.1 mg/kg, five days per week for two consecutive weeks (5d/w×2), and (B) 0.5 mg/kg, three doses given at 4-day intervals (q4d×3). The tumor volumes recorded in both treatment groups and in untreated control animals are plotted vs. days of treatment in FIG. 1. At the end of the study, the tumors measured 1834±160, 1798±309, and 1102±319 mm^3 (means±S.E.M.) for the control animals and animals treated according to schedules A and B, respectively.
(§3) Growth curves are shown for untreated control animals (open squares), and mice treated according to schedule A (filled triangles) and schedule B (filled circles). Measurement of tumor volumes began on day 0, and treatment began on day 4. Each data point represents the mean of 5 tumor volumes±S.E.M.

[2] = tested on: H460 NSCLC tumors xenografted into nude mice; experiment: H460 xenograft study in nude mice; assay type: in vivo
Experimental: as §1, §2, §3

NCI-H460 NSCLC cell line [3] = experiment: Cytotoxicity (cell proliferation) assay, NCI-H460; assay type: cell-based
Experimental: Cytotoxicity Assay. Cytotoxicity studies were carried out according to a standard protocol (Guddneppanavar et al. 2006) using the Celltiter 96 Aqueous Non-Radioactive Cell Proliferation Assay kit (Promega, Madison, Wis.). […] IC50 values were calculated from non-linear curve fits using a sigmoidal dose-response equation in GraphPad Prism (GraphPad Software, La Jolla, Calif.).

NCI-H460 NSCLC cell line [4] = settings: typical values; cited from earlier work

SMILES	MTD at 17 days [1] [mg/kg]	tolerated dose relative to cisplatin ([2]; administered i.p.)	effect on tumor growth ([2]; schedule A: 0.1 mg/kg i.p. 5d/w×2)	effect on tumor growth rate compared to control group ([2]; schedule B: 0.5 mg/kg i.p. q4d×3, P<0.01)	potency in H460 cells relative to the compounds of the invention (fold less potent) (NCI-H460 NSCLC cell line [3])	IC50 in H460 cells (typical) (NCI-H460 NSCLC cell line [4])
CC/C(=[N]\[Pt]([NH2])([NH2])[Cl])N(C)CCNc1c2ccccc2nc2ccccc12 [Compound 14b]	~0.5	an order of magnitude lower than those commonly applied for cisplatin	no effect on tumor growth	slowed the tumor growth rate significantly	–	–
N.N.[Cl][Pt][Cl] [Cisplatin, cis-diamminedichloroplatinum]	–	–	–	–	at least 20 fold	micromolar range
